Data set [1] has as its system Staphylococcus aureus. As to the kind of experiment: Antibacterial activity against Staphylococcus aureus assessed as inhibition of bacterial growth. Format: functional.
In data set [2] the test system is Pseudomonas aeruginosa. As to the kind of experiment: Antibacterial activity against Pseudomonas aeruginosa assessed as inhibition of bacterial growth. It is filed as functional.
The next data set concerns Enterococcus faecium. As to the kind of experiment: Antibacterial activity against Enterococcus faecium assessed as inhibition of bacterial growth by microplate reader analysis. It is filed as functional.
The subject of data set [3] is Staphylococcus aureus. As to the kind of experiment: Antibacterial activity against Staphylococcus aureus assessed as inhibition of bacterial growth by microplate reader analysis. Format: functional.
In another data set the test system is Klebsiella pneumoniae. As to the kind of experiment: Antibacterial activity against Klebsiella pneumoniae assessed as inhibition of bacterial growth by microplate reader analysis. Format: functional.
A further data set deals with Acinetobacter baumannii. As to the kind of experiment: Antibacterial activity against Acinetobacter baumannii assessed as inhibition of bacterial growth by microplate reader analysis. It is filed as functional.
Data set [4] concerns Pseudomonas aeruginosa. As to the kind of experiment: Antibacterial activity against Pseudomonas aeruginosa assessed as inhibition of bacterial growth by microplate reader analysis. Format: functional.
A further data set has as its system Enterobacter sp. As to the kind of experiment: Antibacterial activity against Enterobacter sp. assessed as inhibition of bacterial growth by microplate reader analysis. Format: functional.
The test system of data set [5] is Pseudomonas aeruginosa. As to the kind of experiment: Antibacterial activity against Pseudomonas aeruginosa persistent cells assessed as fold reduction in bacterial cell in the presence of ofloxacin relative to ofloxacin alone. It is filed as functional.
Data set [6] concerns Staphylococcus aureus. As to the kind of experiment: Antibacterial activity against Staphylococcus aureus ATCC 9144 assessed as inhibition of bacterial growth incubated for 24 hrs. Format: functional.
Data set [7] relates to Staphylococcus aureus. As to the kind of experiment: Antimicrobial activity against vancomycin resistant Staphylococcus aureus assessed as inhibition of bacterial growth by CLSI protocol based microdilution method. Format: functional.
The subject of data set [8] is Staphylococcus aureus. As to the kind of experiment: Antimicrobial activity against methicillin resistant Staphylococcus aureus assessed as inhibition of bacterial growth by CLSI protocol based microdilution method. Format: functional.
The subject of data set [9] is Staphylococcus aureus. As to the kind of experiment: Antimicrobial activity against methicillin resistant Staphylococcus aureus MW2 BAA-1707 persisters assessed as inhibition of bacterial colonies. It is filed as functional.
A short description of data set [10]: Hemolytic activity in human erythrocytes assessed as hemolysis incubated for 1 hrs. Format: toxicity, cell-based, Erythrocyte.
Another data set has as its system Streptococcus mutans. As to the kind of experiment: Antibacterial activity against wild type planktonic Streptococcus mutans UA159 assessed as inhibition of bacterial growth incubated for 20 to 24 hrs. It is filed as functional. The following applies: time 20-24 hrs.
The test system of data set [11] is Staphylococcus aureus. As to the kind of experiment: Antibacterial activity against methicillin resistant Staphylococcus aureus MW2 assessed as inhibition of bacterial growth measured after 2 hrs. It is filed as functional.
Data set [12] is described as follows: Cytotoxicity against human hepatocytes assessed as reduction in cell growth by WST-1 assay. It is filed as toxicity, cell-based, Hepatocyte. The following applies: read-out: LC50 (the source's name).
For data set [13], the system named is Pseudomonas aeruginosa. As to the kind of experiment: Antibacterial activity against Pseudomonas aeruginosa persistent cells assessed as fold reduction in bacterial cell at 68 ug/ml in the presence of ofloxacin relative to ofloxacin alone. It is filed as functional. Particulars: dose 68 µg/ml.
In data set [14] the test system is Staphylococcus aureus. As to the kind of experiment: Antibacterial activity against methicillin resistant Staphylococcus aureus ATCC 33591 assessed as inhibition of bacterial growth incubated for 24 hrs by broth microdilution method. Format: functional.
The test system of data set [15] is Staphylococcus aureus. As to the kind of experiment: Antibacterial activity against methicillin resistant Staphylococcus aureus R3889 assessed as inhibition of bacterial growth incubated for 24 hrs by broth microdilution method. Format: functional.
For data set [16], the system named is Staphylococcus aureus. As to the kind of experiment: Antibacterial activity against methicillin resistant Staphylococcus aureus R3890 assessed as inhibition of bacterial growth incubated for 24 hrs by broth microdilution method. Format: functional.

In brackets after ≈: the same amount, converted by molar mass.

Here are results for 12 compounds from ChEMBL document CHEMBL5241050, “Using membrane perturbing small molecules to target chronic persistent infections” (RSC Med Chem, 2021).

With `CCC(C)NCC(O)Cn1c2ccc(Cl)cc2c2cc(Cl)ccc21` (configuration not stated), the MIC in the data set with Staphylococcus aureus [1] and with Pseudomonas aeruginosa [2] was 4.63 µg/mL (≈ 12.7 µM) throughout.
For the compound `Nc1nc(N)c2c(ccc3c2ccn3Cc2ccc(-c3ccccc3)cc2)n1`, the MIC in the data set with Enterococcus faecium, in the data set on Staphylococcus aureus [3], in the data set with Klebsiella pneumoniae, in the data set on Acinetobacter baumannii, in the data set with Pseudomonas aeruginosa [4] and in the data set with Enterobacter sp. was 0.02 µg/mL (≈ 0.0547 µM) throughout.
For `O[C@H](CNCc1ccccc1)COc1ccc(Cl)cc1Cl`, in the data set on Pseudomonas aeruginosa [5], the “fold change (FC)” value is recorded as greater than 2000.
For the compound `Oc1c(Cl)cc(Cl)cc1Sc1cc(Cl)cc(Cl)c1O` [BITHIONOL], the MIC50 in the data set with Staphylococcus aureus [6] stood at 8 µM (≈ 2.85 µg/mL). Further, the MIC with Staphylococcus aureus [7] is 0.5 µg/mL (≈ 1.4 µM).
In the case of `CC(C)c1ccc(Cn2ccc3c4c(N)nc(NC5CC5)nc4ccc32)cc1`, the MIC in the data set with Enterococcus faecium, in the data set with Staphylococcus aureus [3], in the data set with Klebsiella pneumoniae, in the data set on Acinetobacter baumannii, in the data set on Pseudomonas aeruginosa [4] and in the data set on Enterobacter sp. was 2 µg/mL (≈ 5.38 µM) each time.
In the case of `O=C(O)c1c(Oc2ccc(I)cc2)c2cc(Cl)ccc2n1Cc1ccc(Cl)cc1`, the MIC with Staphylococcus aureus [8] came out at 1 µg/mL (≈ 1.86 µM). Besides, the Activity in the data set on Staphylococcus aureus [9] came to 16 µg/mL. Also, in [10], the HC50 at 1 h was greater than 64 µg/mL.
As for `C=CCc1ccc(O)c(-c2ccc(O)c(CC=C)c2)c1` [HONOKIOL], in the data set with Streptococcus mutans, the MIC is 66.6 µg/mL (≈ 250 µM).
In the case of `O=C(O)c1c(Sc2ccccc2)c2cc(Cl)ccc2n1Cc1ccc(Cl)cc1`, the minimum inhibitory concentration (MIC) with Staphylococcus aureus [8] was found to be 4 µg/mL (≈ 9.34 µM). In addition, the Activity in the data set with Staphylococcus aureus [9] stood at 64 µg/mL. Further, the HC50 at 1 h in data set [10] amounted to 47 µg/mL.
With `O=C(O)c1ccc2cc(-c3ccc(O)c(C45CC6CC(CC(C6)C4)C5)c3)ccc2c1` [O-DEMETHYLATED ADAPALENE], the HC50 at 1 h in [10] stood at 32 µg/mL. The MIC in the data set with Staphylococcus aureus [11] turned out to be 1 µg/mL (≈ 2.51 µM). The CC50 in [12] turned out to be 20 µg/mL (≈ 50.2 µM).
Consider `CC(C)(C)c1ccc(CCc2ccc(C(C)(C)C)c(O)c2)cc1O`, for which the MIC in the data set with Streptococcus mutans was determined as 0.65 µg/mL (≈ 1.99 µM).
As for `O[C@H](CNCCc1ccc(Cl)cc1Cl)COc1ccccc1`, the “fold change (FC)” value with Pseudomonas aeruginosa [13] turned out to be 7200.
For the compound `CCCCCCCCCCN(Cc1cccc2ccccc12)C(=O)[C@@H](N)CCCCN`, the MIC in the data set with Staphylococcus aureus [14], in the data set on Staphylococcus aureus [15] and in the data set with Staphylococcus aureus [16] was 4.1 µg/mL (≈ 9.63 µM) each time.
